Measurements: patent US9969694B2, “N-(arylalkyl)-N′-pyrazolyl-urea, thiourea, guanidine and cyanoguanidine compounds as TrkA kinase inhibitors” (Array BioPharma Inc., priority 2012, dated 2018)

Tests used:
[1] = molecular target: T1, His-tagged recombinant human TrkA (Homo sapiens, UniProt P04629); test: TrkA Kinase Binding Assay (LanthaScreen Eu); details: averaged IC50; TR-FRET binding, 60 min, 22° C.; read-out: TrkA Enzyme IC50
T1 construct: 6HIS tagged cytoplasmic domain from Invitrogen, Catalog No. PV3144; purchased Invitrogen PV3144
In short: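 TR-FRET tracer displacement: 5 nM His-tagged TrkA cytoplasmic domain with 4 nM Tracer 236, biotinylated anti-His and Eu-streptavidin in pH 7.5 MOPS buffer, 2% DMSO, 60 min at 22 °C. 665/615 nm emission ratio gave percent of control; IC50 from four-parameter fit.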

IKKbeta = molecular target: T2, IKKbeta (Homo sapiens, UniProt O14920); test: Off-Target Kinase Profiling; assay type: biochemical; details: 10 μM; ATP near Km
T2 construct: purchased Millipore, Inc. (KinaseProfiler service)
T2 sequence (O14920 whole entry): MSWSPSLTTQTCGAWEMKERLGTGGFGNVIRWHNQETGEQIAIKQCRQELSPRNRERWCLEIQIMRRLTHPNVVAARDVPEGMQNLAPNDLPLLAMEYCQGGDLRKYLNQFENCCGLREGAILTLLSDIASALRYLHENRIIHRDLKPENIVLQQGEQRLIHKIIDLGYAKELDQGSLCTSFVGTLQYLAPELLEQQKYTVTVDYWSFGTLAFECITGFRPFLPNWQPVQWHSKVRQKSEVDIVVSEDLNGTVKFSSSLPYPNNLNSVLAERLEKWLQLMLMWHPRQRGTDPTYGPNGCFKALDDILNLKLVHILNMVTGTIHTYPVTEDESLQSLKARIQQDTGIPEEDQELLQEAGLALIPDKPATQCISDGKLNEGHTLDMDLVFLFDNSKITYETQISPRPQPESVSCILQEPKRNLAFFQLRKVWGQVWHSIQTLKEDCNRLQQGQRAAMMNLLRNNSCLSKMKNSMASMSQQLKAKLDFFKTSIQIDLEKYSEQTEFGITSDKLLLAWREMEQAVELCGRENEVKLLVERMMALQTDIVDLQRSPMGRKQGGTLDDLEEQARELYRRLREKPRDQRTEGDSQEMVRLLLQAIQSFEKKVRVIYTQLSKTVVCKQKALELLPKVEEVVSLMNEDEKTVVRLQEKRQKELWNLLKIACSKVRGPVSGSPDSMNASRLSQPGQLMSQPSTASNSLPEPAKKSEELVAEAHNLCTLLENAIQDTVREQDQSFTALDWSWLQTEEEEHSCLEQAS
Method: (§1) Representative compounds of the invention (Examples 33 and 10) were tested for off-target kinase activity at a concentration of 10 μM by Millipore, Inc. in their KinaseProfiler™ service against all the kinases available in their full kinase panel. Compounds were run in duplicate at a concentration of ATP near the Km for each individual kinase according to Millipore's specifications. The results are shown in Table B. Data are reported as percent of control (POC) and are the average of the two replicates.

HIPK2 = molecular target: T3, HIPK2 (Homo sapiens, UniProt Q9H2X6); test: Off-Target Kinase Profiling; assay type: biochemical; details: 10 μM; ATP near Km
T3 construct: purchased Millipore, Inc. (KinaseProfiler service)
Method: as §1

MLK1 = molecular target: T4, MLK1 (Homo sapiens, UniProt P80192); test: Off-Target Kinase Profiling; assay type: biochemical; details: 10 μM; ATP near Km
T4 construct: purchased Millipore, Inc. (KinaseProfiler service)
Method: as §1

IR = molecular target: T5, IR (Homo sapiens, UniProt P06213); test: Off-Target Kinase Profiling; assay type: biochemical; details: 10 μM; ATP near Km
T5 construct: purchased Millipore, Inc. (KinaseProfiler service)
Method: as §1

GSK3alpha = molecular target: T6, GSK3alpha (Homo sapiens, UniProt P49840); test: Off-Target Kinase Profiling; assay type: biochemical; details: 10 μM; ATP near Km
T6 construct: purchased Millipore, Inc. (KinaseProfiler service)
T6 sequence (P49840 whole entry): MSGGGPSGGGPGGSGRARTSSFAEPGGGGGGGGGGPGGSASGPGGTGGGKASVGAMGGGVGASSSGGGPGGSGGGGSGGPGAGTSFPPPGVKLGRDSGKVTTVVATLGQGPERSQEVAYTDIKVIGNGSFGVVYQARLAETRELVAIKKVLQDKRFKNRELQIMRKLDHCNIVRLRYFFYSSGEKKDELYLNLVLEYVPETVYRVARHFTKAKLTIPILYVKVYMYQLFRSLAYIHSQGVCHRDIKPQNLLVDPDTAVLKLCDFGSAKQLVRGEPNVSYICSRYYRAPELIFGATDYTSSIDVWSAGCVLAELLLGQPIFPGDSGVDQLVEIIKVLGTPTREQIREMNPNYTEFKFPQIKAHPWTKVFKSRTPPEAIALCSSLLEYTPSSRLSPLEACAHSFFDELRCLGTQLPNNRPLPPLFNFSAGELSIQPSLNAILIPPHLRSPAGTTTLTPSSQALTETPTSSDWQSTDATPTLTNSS
Method: as §1

NEK2 = molecular target: T7, NEK2 (Homo sapiens, UniProt P51955); test: Off-Target Kinase Profiling; assay type: biochemical; details: 10 μM; ATP near Km
T7 construct: purchased Millipore, Inc. (KinaseProfiler service)
T7 sequence (P51955 whole entry): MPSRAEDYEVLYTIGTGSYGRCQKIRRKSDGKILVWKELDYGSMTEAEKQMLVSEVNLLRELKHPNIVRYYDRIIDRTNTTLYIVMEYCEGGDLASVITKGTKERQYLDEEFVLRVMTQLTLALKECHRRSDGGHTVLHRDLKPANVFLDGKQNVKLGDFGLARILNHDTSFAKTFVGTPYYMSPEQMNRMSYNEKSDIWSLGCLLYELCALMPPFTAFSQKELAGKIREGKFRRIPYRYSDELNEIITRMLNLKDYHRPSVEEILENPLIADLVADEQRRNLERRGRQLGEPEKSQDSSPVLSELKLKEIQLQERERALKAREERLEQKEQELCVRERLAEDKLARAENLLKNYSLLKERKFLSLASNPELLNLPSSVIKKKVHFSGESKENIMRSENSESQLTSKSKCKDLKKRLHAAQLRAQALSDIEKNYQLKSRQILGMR
Method: as §1

c-RAF = test: Off-Target Kinase Profiling; assay type: biochemical; details: 10 μM; ATP near Km
Method: as §1

Pim-1 = molecular target: T8, Pim-1 (Homo sapiens, UniProt P11309); test: Off-Target Kinase Profiling; assay type: biochemical; details: 10 μM; ATP near Km
T8 construct: purchased Millipore, Inc. (KinaseProfiler service)
Method: as §1

CDK5/p35 = molecular target: T9, CDK5/p35 (Homo sapiens, UniProt Q00535); test: Off-Target Kinase Profiling; assay type: biochemical; details: 10 μM; ATP near Km
T9 construct: purchased Millipore, Inc. (KinaseProfiler service)
Method: as §1

p38beta = molecular target: T10, p38beta (Homo sapiens, UniProt Q15759); test: Off-Target Kinase Profiling; assay type: biochemical; details: 10 μM; ATP near Km
T10 construct: purchased Millipore, Inc. (KinaseProfiler service)
Method: as §1

LKB1 = molecular target: T11, LKB1 (Homo sapiens, UniProt Q15831); test: Off-Target Kinase Profiling; assay type: biochemical; details: 10 μM; ATP near Km
T11 construct: purchased Millipore, Inc. (KinaseProfiler service)
Method: as §1

MEK1 = molecular target: T12, MEK1 (Homo sapiens, UniProt Q02750); test: Off-Target Kinase Profiling; assay type: biochemical; details: 10 μM; ATP near Km
T12 construct: purchased Millipore, Inc. (KinaseProfiler service)
Method: as §1

CAMK1d = molecular target: T13, CAMK1d (Homo sapiens, UniProt Q8IU85); test: Off-Target Kinase Profiling; assay type: biochemical; details: 10 μM; ATP near Km
T13 construct: purchased Millipore (KinaseProfiler service)
Method: as §1

Flt1 = molecular target: T14, Flt1 (Homo sapiens, UniProt P17948); test: Off-Target Kinase Profiling; assay type: biochemical; details: 10 μM; ATP near Km
T14 construct: purchased Millipore, Inc. (KinaseProfiler service)
Method: as §1

CDK2/cyclinE = molecular target: T15, CDK2/cyclinE (Homo sapiens, UniProt P24941); test: Off-Target Kinase Profiling; assay type: biochemical; details: 10 μM; ATP near Km
T15 construct: purchased Millipore, Inc. (KinaseProfiler service)
Method: as §1

MAPKAP-K3 = molecular target: T16, MAPKAP-K3 (Homo sapiens, UniProt Q16644); test: Off-Target Kinase Profiling; assay type: biochemical; details: 10 μM; ATP near Km
T16 construct: purchased Millipore, Inc. (KinaseProfiler service)
Method: as §1

PTK5 = molecular target: T17, PTK5 (Homo sapiens, UniProt P42685); test: Off-Target Kinase Profiling; assay type: biochemical; details: 10 μM; ATP near Km
T17 construct: purchased Millipore, Inc. (KinaseProfiler service)
Method: as §1

SGK2 = molecular target: T18, SGK2 (Homo sapiens, UniProt Q9HBY8); test: Off-Target Kinase Profiling; assay type: biochemical; details: 10 μM; ATP near Km
T18 construct: purchased Millipore, Inc. (KinaseProfiler service)
T18 sequence (Q9HBY8 whole entry): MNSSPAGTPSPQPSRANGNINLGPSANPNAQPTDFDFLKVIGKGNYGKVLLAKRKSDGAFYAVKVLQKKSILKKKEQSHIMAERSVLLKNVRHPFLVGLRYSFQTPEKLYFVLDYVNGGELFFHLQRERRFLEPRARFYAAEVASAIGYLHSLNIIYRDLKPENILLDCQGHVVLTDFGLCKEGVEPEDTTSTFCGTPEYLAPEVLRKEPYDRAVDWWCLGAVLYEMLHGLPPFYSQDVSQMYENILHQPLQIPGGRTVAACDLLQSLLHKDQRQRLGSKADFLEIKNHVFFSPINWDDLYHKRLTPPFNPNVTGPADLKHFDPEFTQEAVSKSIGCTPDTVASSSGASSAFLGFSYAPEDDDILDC
Method: as §1

ROCK-II = molecular target: T19, ROCK-II (Homo sapiens, UniProt O75116); test: Off-Target Kinase Profiling; assay type: biochemical; details: 10 μM; ATP near Km
T19 construct: purchased Millipore, Inc. (KinaseProfiler service)
Method: as §1

ALK4 = molecular target: T20, ALK4 (Homo sapiens, UniProt P36896); test: Off-Target Kinase Profiling; assay type: biochemical; details: 10 μM; ATP near Km
T20 construct: purchased Millipore (KinaseProfiler service)
T20 sequence (P36896 24-505): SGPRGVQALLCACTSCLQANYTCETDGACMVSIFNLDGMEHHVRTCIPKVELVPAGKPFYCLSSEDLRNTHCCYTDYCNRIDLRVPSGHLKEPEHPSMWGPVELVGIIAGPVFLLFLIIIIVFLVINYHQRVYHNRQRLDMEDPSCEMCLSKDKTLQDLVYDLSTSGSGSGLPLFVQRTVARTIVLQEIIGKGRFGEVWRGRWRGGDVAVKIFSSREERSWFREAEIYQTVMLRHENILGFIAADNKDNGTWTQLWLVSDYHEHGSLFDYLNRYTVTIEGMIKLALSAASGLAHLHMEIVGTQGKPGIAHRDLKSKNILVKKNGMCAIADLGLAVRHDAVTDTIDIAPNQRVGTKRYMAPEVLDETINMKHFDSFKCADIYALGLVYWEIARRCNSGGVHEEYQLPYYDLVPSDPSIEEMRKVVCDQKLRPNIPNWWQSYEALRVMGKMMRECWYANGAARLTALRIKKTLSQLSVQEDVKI
Method: as §1

IRAK1 = molecular target: T21, IRAK1 (Homo sapiens, UniProt P51617); test: Off-Target Kinase Profiling; assay type: biochemical; details: 10 μM; ATP near Km
T21 construct: purchased Millipore, Inc. (KinaseProfiler service)
Method: as §1

GRK5 = molecular target: T22, GRK5 (Homo sapiens, UniProt P34947); test: Off-Target Kinase Profiling; assay type: biochemical; details: 10 μM; ATP near Km
T22 construct: purchased Millipore, Inc. (KinaseProfiler service)
T22 sequence (P34947 whole entry): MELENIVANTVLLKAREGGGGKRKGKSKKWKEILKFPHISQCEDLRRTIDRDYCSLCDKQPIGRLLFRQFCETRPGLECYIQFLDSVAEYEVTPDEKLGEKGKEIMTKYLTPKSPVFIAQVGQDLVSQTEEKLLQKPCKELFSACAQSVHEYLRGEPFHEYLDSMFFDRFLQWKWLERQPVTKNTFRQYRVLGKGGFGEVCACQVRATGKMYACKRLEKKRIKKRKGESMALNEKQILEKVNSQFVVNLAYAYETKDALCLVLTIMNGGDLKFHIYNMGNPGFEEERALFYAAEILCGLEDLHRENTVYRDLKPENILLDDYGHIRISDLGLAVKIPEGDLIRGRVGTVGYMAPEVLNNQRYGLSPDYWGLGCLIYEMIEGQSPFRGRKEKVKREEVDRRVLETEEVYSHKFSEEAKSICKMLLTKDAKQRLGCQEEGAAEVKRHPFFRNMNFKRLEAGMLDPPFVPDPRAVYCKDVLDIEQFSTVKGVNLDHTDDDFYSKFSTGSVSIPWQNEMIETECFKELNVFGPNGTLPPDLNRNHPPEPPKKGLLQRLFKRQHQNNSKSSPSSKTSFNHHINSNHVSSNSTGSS
Method: as §1

BrSK2 = molecular target: T23, BrSK2 (Homo sapiens, UniProt Q8IWQ3); test: Off-Target Kinase Profiling; assay type: biochemical; details: 10 μM; ATP near Km
T23 construct: purchased Millipore (KinaseProfiler service)
T23 sequence (Q8IWQ3 whole entry): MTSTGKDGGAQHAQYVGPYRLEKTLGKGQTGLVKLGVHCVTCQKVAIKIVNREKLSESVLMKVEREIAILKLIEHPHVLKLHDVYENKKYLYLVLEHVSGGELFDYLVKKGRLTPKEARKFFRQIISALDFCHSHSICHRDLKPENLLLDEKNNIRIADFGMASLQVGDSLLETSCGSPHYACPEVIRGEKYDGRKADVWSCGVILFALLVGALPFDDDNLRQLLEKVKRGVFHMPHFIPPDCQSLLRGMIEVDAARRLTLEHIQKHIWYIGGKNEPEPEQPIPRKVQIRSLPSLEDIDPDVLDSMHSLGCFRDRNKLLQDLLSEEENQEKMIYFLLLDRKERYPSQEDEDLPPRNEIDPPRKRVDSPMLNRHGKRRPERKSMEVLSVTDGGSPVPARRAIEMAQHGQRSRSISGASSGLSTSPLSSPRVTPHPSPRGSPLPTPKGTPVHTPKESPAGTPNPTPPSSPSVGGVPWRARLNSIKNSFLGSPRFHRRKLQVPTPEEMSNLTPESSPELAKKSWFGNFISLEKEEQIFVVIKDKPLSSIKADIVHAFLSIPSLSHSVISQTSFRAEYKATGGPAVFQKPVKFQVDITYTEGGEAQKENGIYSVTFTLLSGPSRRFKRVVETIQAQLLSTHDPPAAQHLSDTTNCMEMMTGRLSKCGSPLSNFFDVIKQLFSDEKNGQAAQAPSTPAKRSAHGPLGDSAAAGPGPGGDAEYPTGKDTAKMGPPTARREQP
Method: as §1

Ron = molecular target: T24, Ron (Homo sapiens, UniProt Q04912); test: Off-Target Kinase Profiling; assay type: biochemical; details: 10 μM; ATP near Km
T24 construct: purchased Millipore, Inc. (KinaseProfiler service)
Method: as §1

PKCbetaI = molecular target: T25, PKCbetaI (Homo sapiens, UniProt P05771); test: Off-Target Kinase Profiling; assay type: biochemical; details: 10 μM; ATP near Km
T25 construct: purchased Millipore, Inc. (KinaseProfiler service)
Method: as §1

Fer = molecular target: T26, Fer (Homo sapiens, UniProt P16591); test: Off-Target Kinase Profiling; assay type: biochemical; details: 10 μM; ATP near Km
T26 construct: purchased Millipore, Inc. (KinaseProfiler service)
Method: as §1

Rsk3 = molecular target: T27, Rsk3 (Homo sapiens, UniProt Q15349); test: Off-Target Kinase Profiling; assay type: biochemical; details: 10 μM; ATP near Km
T27 construct: purchased Millipore, Inc. (KinaseProfiler service)
Method: as §1

CDK7/cyclinH/MAT1 = molecular target: T28, CDK7/cyclinH/MAT1 (Homo sapiens, UniProt P50613); test: Off-Target Kinase Profiling; assay type: biochemical; details: 10 μM; ATP near Km
T28 construct: purchased Millipore, Inc. (KinaseProfiler service)
Method: as §1

EphA2 = molecular target: T29, EphA2 (Homo sapiens, UniProt P29317); test: Off-Target Kinase Profiling; assay type: biochemical; details: 10 μM; ATP near Km
T29 construct: purchased Millipore, Inc. (KinaseProfiler service)
Method: as §1

FAK2 = molecular target: T30, FAK2 (Homo sapiens, UniProt Q14289); test: Off-Target Kinase Profiling; assay type: biochemical; details: 10 μM; ATP near Km
T30 construct: purchased Millipore, Inc. (KinaseProfiler service)
T30 sequence (Q14289 whole entry): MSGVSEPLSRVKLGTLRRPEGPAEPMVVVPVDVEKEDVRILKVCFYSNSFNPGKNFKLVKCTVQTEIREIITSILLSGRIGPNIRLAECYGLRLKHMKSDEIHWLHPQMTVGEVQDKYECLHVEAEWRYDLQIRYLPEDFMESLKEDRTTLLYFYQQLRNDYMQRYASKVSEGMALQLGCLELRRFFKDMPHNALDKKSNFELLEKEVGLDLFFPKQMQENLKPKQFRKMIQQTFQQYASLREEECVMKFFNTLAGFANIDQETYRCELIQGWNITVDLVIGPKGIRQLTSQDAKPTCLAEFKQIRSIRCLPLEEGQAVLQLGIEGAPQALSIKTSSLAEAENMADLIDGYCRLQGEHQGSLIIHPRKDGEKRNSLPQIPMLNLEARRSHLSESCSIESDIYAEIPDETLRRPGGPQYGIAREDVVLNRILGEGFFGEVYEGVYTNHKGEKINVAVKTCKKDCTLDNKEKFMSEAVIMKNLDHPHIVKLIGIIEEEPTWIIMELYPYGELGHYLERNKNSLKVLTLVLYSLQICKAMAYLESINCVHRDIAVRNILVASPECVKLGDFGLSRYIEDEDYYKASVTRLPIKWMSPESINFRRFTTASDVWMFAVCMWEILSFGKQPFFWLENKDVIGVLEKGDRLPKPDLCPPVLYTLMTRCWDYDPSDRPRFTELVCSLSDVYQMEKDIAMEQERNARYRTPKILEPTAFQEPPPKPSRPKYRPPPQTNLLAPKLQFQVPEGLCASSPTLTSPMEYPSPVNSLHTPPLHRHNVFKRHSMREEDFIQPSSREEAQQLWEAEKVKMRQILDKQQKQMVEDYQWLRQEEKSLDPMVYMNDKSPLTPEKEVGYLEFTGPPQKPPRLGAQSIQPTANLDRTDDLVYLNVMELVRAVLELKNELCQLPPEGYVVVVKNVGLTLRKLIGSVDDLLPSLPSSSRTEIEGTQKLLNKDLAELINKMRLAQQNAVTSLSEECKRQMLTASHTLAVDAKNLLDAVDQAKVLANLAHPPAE
Method: as §1

Lck = molecular target: T31, Lck (Homo sapiens, UniProt P06239); test: Off-Target Kinase Profiling; assay type: biochemical; details: 10 μM; ATP near Km
T31 construct: purchased Millipore, Inc. (KinaseProfiler service)
Method: as §1

`COCc1ccc(C2CCC2)c(CNC(=O)Nc2c(C)c(-c3cnc(C)nc3)nn2-c2ccccc2)c1` [Example 10, 1-(2-cyclobutyl-5-(methoxymethyl)benzyl)-3-(4-methyl-3-(2-methylpyrimidin-5-yl)-1-phenyl-1H-pyrazol-5-yl)urea] was tested, and the IC50 [1] was < 100 nM, the “Avg POC IKKbeta” value (IKKbeta) was 104.5 POC and the “Avg POC HIPK2” value (HIPK2) was 102.5 POC. For the same compound, the “Avg POC MLK1” value (MLK1) was 100.5 POC, the “Avg POC IR” value (IR) was 90 POC and the “Avg POC GSK3alpha” value (GSK3alpha) was 105 POC. For the same compound, the “Avg POC NEK2” value (NEK2) was 98 POC, the “Avg POC c-RAF” value (c-RAF) was 90 POC and the “Avg POC Pim-1” value (Pim-1) was 101.5 POC. The “Avg POC CDK5/p35” value (CDK5/p35) was 97 POC, the “Avg POC p38beta” value (p38beta) was 101.5 POC and the “Avg POC LKB1” value (LKB1) was 89.5 POC. For the same compound, the “Avg POC MEK1” value (MEK1) was 121 POC, the “Avg POC CAMK1d” value (CAMK1d) was 81 POC and the “Avg POC Flt1” value (Flt1) was 88 POC. For the same compound, the “Avg POC CDK2/cyclinE” value (CDK2/cyclinE) was 93 POC, the “Avg POC MAPKAP-K3” value (MAPKAP-K3) was 98.5 POC and the “Avg POC PTK5” value (PTK5) was 87.5 POC. The “Avg POC SGK2” value (SGK2) was 80.5 POC, the “Avg POC ROCK-II” value (ROCK-II) was 98 POC and the “Avg POC ALK4” value (ALK4) was 111.5 POC. The “Avg POC IRAK1” value (IRAK1) was 101 POC, the “Avg POC GRK5” value (GRK5) was 81.5 POC and the “Avg POC BrSK2” value (BrSK2) was 95 POC. For the same compound, the “Avg POC Ron” value (Ron) was 100.5 POC, the “Avg POC PKCbetaI” value (PKCbetaI) was 104.5 POC and the “Avg POC Fer” value (Fer) was 96.5 POC. For the same compound, the “Avg POC Rsk3” value (Rsk3) was 101 POC, the “Avg POC CDK7/cyclinH/MAT1” value (CDK7/cyclinH/MAT1) was 96.5 POC and the “Avg POC EphA2” value (EphA2) was 103 POC. For the same compound, the “Avg POC FAK2” value (FAK2) was 96 POC and the “Avg POC Lck” value (Lck) was 75.5 POC.

`COCc1ccc(C(F)(F)F)c(CNC(=O)Nc2c(C)c(-c3cnn(C)c3)nn2-c2ccccc2)c1` [Example 33, 1-(1′,4-dimethyl-1-phenyl-1H,1′H-[3,4′-bipyrazol]-5-yl)-3-(5-(methoxymethyl)-2-(trifluoromethyl)benzyl)urea] was tested, and the IC50 [1] was < 100 nM, the “Avg POC IKKbeta” value (IKKbeta) was 120.5 POC and the “Avg POC HIPK2” value (HIPK2) was 95 POC. The “Avg POC MLK1” value (MLK1) was 105.5 POC, the “Avg POC IR” value (IR) was 68 POC and the “Avg POC GSK3alpha” value (GSK3alpha) was 161 POC. For the same compound, the “Avg POC NEK2” value (NEK2) was 96 POC, the “Avg POC c-RAF” value (c-RAF) was 94.5 POC and the “Avg POC Pim-1” value (Pim-1) was 138 POC. For the same compound, the “Avg POC CDK5/p35” value (CDK5/p35) was 108.5 POC, the “Avg POC p38beta” value (p38beta) was 111.5 POC and the “Avg POC LKB1” value (LKB1) was 90 POC. The “Avg POC MEK1” value (MEK1) was 117 POC, the “Avg POC CAMK1d” value (CAMK1d) was 111.5 POC and the “Avg POC Flt1” value (Flt1) was 91 POC. For the same compound, the “Avg POC CDK2/cyclinE” value (CDK2/cyclinE) was 115.5 POC, the “Avg POC MAPKAP-K3” value (MAPKAP-K3) was 119.5 POC and the “Avg POC PTK5” value (PTK5) was 92.5 POC. For the same compound, the “Avg POC SGK2” value (SGK2) was 208 POC, the “Avg POC ROCK-II” value (ROCK-II) was 107.5 POC and the “Avg POC ALK4” value (ALK4) was 106 POC. For the same compound, the “Avg POC IRAK1” value (IRAK1) was 113 POC, the “Avg POC GRK5” value (GRK5) was 82 POC and the “Avg POC BrSK2” value (BrSK2) was 145.5 POC. For the same compound, the “Avg POC Ron” value (Ron) was 95.5 POC, the “Avg POC PKCbetaI” value (PKCbetaI) was 111.5 POC and the “Avg POC Fer” value (Fer) was 90.5 POC. The “Avg POC Rsk3” value (Rsk3) was 103 POC, the “Avg POC CDK7/cyclinH/MAT1” value (CDK7/cyclinH/MAT1) was 113.5 POC and the “Avg POC EphA2” value (EphA2) was 126.5 POC. For the same compound, the “Avg POC FAK2” value (FAK2) was 108 POC and the “Avg POC Lck” value (Lck) was 93 POC.
